# Reference: article PMC6586287, “Blocking transmembrane219 protein signaling inhibits autophagy and restores normal cell death” (PLoS ONE, 2019)
# Entries after “also recorded” stand apart in the source; their conditions may differ.
# Key:
# [1] = test system: Vero cells; experiment: DIC microscopy of internal vacuoles, Vero cells; format: cell-based; settings: wild type versus TM219 knockout Vero cells; 1 μM IGFBP3, 1 h, serum free
# [2] = fluorescence anisotropy control binding to empty nanodisc
# Protocol: Reconstituted TM219 into 13 nm nanodisc and labeling of our purified calmodulin or IGFBP3 (R&D systems) with BODIPY-TRM-X-succinimidyl ester dye were described previously. […] Serial dilution of the TM219 short cytoplasmic peptide (1pM-10mM) was used. Fluorescence anisotropy assays were done in triplicates and data represent an average of three independent experiments. Each sample was run in triplicates and an average of 60 readings was used for calculation. Binding constants (KDs) or inhibition constant (Ki) were determined with Origin 7 (OriginLab) by fitting the data as described previously.
# [3] = test system: TM219 complex (calmodulin, CaMKII) in MCF7 cells; experiment: immunopurification of TM219 complex, anti-CaMKII / anti-calmodulin immunoblot, MCF7 cells; format: cell-based, human; settings: 1 μM IGFBP3, versus untreated and normal mouse antibody beads
# [4] = test system: phospho-Beclin1 in MCF7 cells; experiment: Beclin1 phosphorylation / autophagy immunoblot, MCF7 cells; format: cell-based, human; settings: 1 μM IGFBP3, 1 h, serum free; wild type versus TM219 knockout; anti-phospho-beclin1, anti-LC3
# Protocol: For phosphorylation assay of Beclin1 protein, we treated 6x10^6 MCF7 cells grown in DMEM serum free medium with 1 μM IGFBP3. Lysates were prepared in RIPA buffer in presence of 2X protease and phosphatase inhibitors (Thermofisher Scientific). Lysates were clarified by centrifugation at 10,000 rpm for 30 minutes at 4°C. Finally, the blotted membranes were probed with anti-TM219, LC3, calmodulin, phospho-beclin1, or β-actin. To quantify the ratio between LC3-II and LC3-I, we used an image densitometry method using ImageJ software.
# [5] = test system: cytosolic calcium in MCF7 cells; experiment: cytosolic calcium, colorimetric kit, MCF7 cells; format: cell-based, human; settings: 1 μM IGFBP3, 5 min, serum free
# Protocol: We used a colorimetric kit to measure the increase in the cytosolic calcium in MCF7 cells according to the provider recommendations (Abcam). MCF7 cells were grown in completed DMEM medium at density of 5x10^5 cells/ml in 6 well plates. We compared the effects of 1μM IGFBP3 on the wild type, TM219 knockout and untreated MCF7 cells after 5 minutes in serum free medium. As a positive control we used […] ionomycin (Thermofishter Scientific). As a negative control we pretreated MCF7 cells with […] BAPTA for 30 minutes (Thermofisher Scientific). Experiments were run in triplicate.
# [6] = test system: cytosolic calcium in MCF7 cells; settings: independent on IGF or heparin; ref [55]; cited from earlier work
# Source text: After that we compared the effects of IGFBP3 on elevation of intracellular calcium in these cells. […] However, no sign ...
# [7] = test system: LC3 processing in Vero cells; experiment: LC3-II punctate staining, LC3-mRFP transfected Vero cells; format: cell-based
# Protocol: Immunostaining was performed as described previously (44). Briefly, cells were grown on a coverslip overnight at 5×10^5 cells/ml. 1 μl of Hoechst stain (10 μg/μl) was added to the cells for 10 min at 37°C. For tracking TM219 short cytoplasmic peptide assay, we pretreated the cells with the peptides at concentration of 0, 25, or 250 nM, then added 1 μM IGFBP3 for an hour in DMEM serum free medium. Cells were fixed with 4% paraformaldehyde and permeabilized with 1% triton x100. Cells were then blocked overnight with 10% fetal bovine serum (FBS) in PBS. Finally, cells were stained with streptavidin conjugated to Alex555 (Thermofisher Scientific) for 30 minutes in the same blocking buffer. For immunostaining, cells were stained with the primary antibody according to the manufacturer’s recommendation in the same blocking buffer. The cells were washed 10 times with PBS. Cells were blocked for 1 h with 10% FBS and then stained with secondary antibody conjugated to fluorescence dye (Thermofisher Scientific). As controls, we used secondary antibodies alone. Cells were washed 10 times with PBS and mounted with fluoromount G (Microscopic Science) before examination.
# We stained the intact cellular mitochondria using TMRM dye according to the provider recommendations (Thermofisher Scientific). To evaluate the cell membrane permeability in 3D culture, we used membrane impermeable dye propodeum iodide (PI), and the membrane permeable dye (Hoechst dye) to stain the cell nuclei according to the manufacturer recommendations (Thermofisher Scientific). For autophagy efflux assay, we used chloroquine (Sigma-Alderish) (CQ) at final concentration of 200 μM as described previously. Collected images were analyzed with ImageJ software.
# [8] = test system: TM219-calmodulin complex in THP1 cells; experiment: co-immunoprecipitation of TM219 complex, anti-calmodulin immunoblot, THP1 cells; format: cell-based, human; settings: 1 μM IGFBP3, 1 h, serum free
# Protocol: For immunoprecipitation of TM219 complex, we treated 6X10^6 THP1 cells grown in Roswell park memorial institute 1640 medium (PRIM) without serum with 1 μM IGFBP3 for 1 hour. Cells were lysed with immunoprecipitation buffer (1% NP-40, 150 mM NaCl, and 50 mM Tris pH 8.4 in the presence of 2 X protease inhibitors (Roche)). Crosslinking of mouse anti-TM219 antibodies to protein A-Sepharose was performed as previously described. Briefly, 1 mg of the antibody was incubated with 1 ml protein A-Sepharose beads (Thermofisher scientific), with continuous mixing at 4°C for 2 h. The beads were then centrifuged and washed five times with PBS and once with 200 mM sodium borate, pH 9. Equal volumes of 40 mM dimethylsuberimidate (Thermofisher scientific) in 200 mM sodium borate were mixed with the beads, and the suspension was incubated, with continuous mixing, at room temperature for 30 min. The reaction was terminated by addition of equal volumes of 400 mM ethanolamine, and the sample was incubated for an additional 30 min. The beads were packed into a 1-cm-diameter column (Bio-RAD) and washed three times with 2 bed volumes of PBS and once with 4 bed volumes of 100 mM glycine-HCl at pH 2.4 to remove non-cross-linked antibodies. Finally, the cross-linked antibody beads were washed with PBS until the pH reached 7 and stored at 4°C in PBS containing 0.02% sodium azide. […]
# [9] = test system: MDA-MB231 cells; experiment: pHLIP-Cy3 insertion, fluorescence microscopy, MDA-MB231 cells in 2D and 3D culture; format: cell-based, human; settings: 2D (3 days) and 3D (0.5% low melting agarose, 5 days) culture; 6 h at 37°C in DMEM buffered with PBS
# Protocol: A- MDA-MB231 cells were grown in a complete DMEM medium for 3 days or in 0.5% low melting agarose in complete medium for 5 days were treated with phLIP-Cy3 peptide in DMEM buffered with PBS for 6 hour at 37°C. Growth media were replaced with completed DMEM medium buffered with carbonate. Cells were imaged for insertion of the peptide. […] Nuclei of the cells were stained with Hoechst stain (blue) B-Cells pretreated with pHLIP-TM219 peptide or pHLIP peptide alone for 5 days in 0.5% low melting agarose in DMEM complete media supplemented with 1 μM IGFBP3. The peptides were mixed with DMEM buffered with PBS and added to the spheroids grown in low melting agarose. After 6 hours, the media were replaced with completed DMEM media buffered with carbonate pH 7.2. Cells were incubated for additional 9 days at 37°C in a CO2 incubator. […] Living cells were assessed by Hoechst dye stain (Blue).
# [10] = test system: MCF7 cells; experiment: pHLIP-Cy3 insertion into cell membrane, fluorescence microscopy, MCF7 cells; format: cell-based, human; settings: pH 7.4 or pH 5.5, 5 min
# Protocol: Fig 6 TM219 short cytoplasmic protein tail peptide disrupts the interaction between calmodulin and TM219 protein. […] As the concentration of the free peptide increased, the changes in FP signal decreased. […] B- MCF7 cells treated with pHLIP-cy3 peptide at pH 7.4 or pH 5.5 for 5 minutes. Cells were fixed and examined with fluorescence microscopy. […] Nuclei were stained with Hoechst dye (blue). C-MCF7 cells pretreated with either SCTT-pHLIP or pHLIP peptide alone were treated with 1μM IGFBP3 for 1hour in DMEM serum free medium. Cell lysates were subjected to immunoblot using anti-human phosphor-beclin1 antibody. […] TEXT PRINTED IN THE PICTURE: (A) unlabeled peptide: ki 0.02342 ± 0.001492 DOUBTS OF THE COPYIST ABOUT THIS PICTURE: Panel A, ki: no unit is printed with the value. The substance label 'unlabeled peptide' is taken from the printed x-axis title because the fit box names no substance. / Panel A: 'c 0.1 ± 0' in the fit box was left out as a fit parameter whose meaning is unclear.
compound,measurement,setting,value
Insulin-like growth factor binding protein 3 [IGFBP3],internal vacuoles,[1],TM219 wild type Vero cells demonstrated larger internal vacuoles after treatment with IGFBP3 compared to TM219 knockout Vero cells; also recorded: wild type Vero cells showed larger internal vacuoles
same,binding of labelled IGFBP3 to empty nanodisc,"[2]; empty nanodisc 0-2000 nM, fluorescence anisotropy",No specific binding was detected
same,association of calmodulin and CaMKII with TM219 complex,[3],TM219 protein recruits calmodulin and calmodulin dependent kinase II after treatment with IGFBP3; also recorded: Purified proteins from cells treated with IGFBP3 reacted specifically with anti-CaMKII antibody
same,autophagy activation in MCF7 cells,[4],activates autophagy in MCF7 cells
same,"cytosolic calcium, TM219 knockout versus wild type",[5],no significant difference
same,cytosolic calcium,"[5]; % of ionomycin reading, BAPTA reading subtracted",triggered elevation of the cytosolic calcium in MCF7 independent of TM219 receptor; also recorded: relatively higher signal of calcium relative to untreated MCF7 cells
same,intracellular calcium release in MCF7 cells (previous studies),[6],activates intracellular rapid release of intracellular calcium in MCF7 cells
same,LC3 processing (LC3-II punctate staining),"[7]; Vero cells with LC3-mRFP, 1 μM IGFBP3, 1 h, serum free, mean +/- SEM plotted",significant increase in processing of LC3; also recorded: significant increase in number of LCII punctate stain
same,TM219-calmodulin complex formation (co-immunoprecipitation),[8],immunoprecipitation with anti-TM219 consistently brought down calmodulin
AEQNPIYWARYADWLFTTPLLLLDLALLVDADEGTC-s-s-C(cy3) [pHLIP-cy3],insertion into plasma membrane of MDA-MB231 cells,[9],insertion of pHLIP-cy3 peptide into the plasma membrane of MAD-MB231 in both two dimension and three dimension cell cultures
same,insertion into plasma membrane of MCF7 cells,[10],Staining of the cells with red dye indicates insertion of pHLIP-cy3 into the cell membrane of MCF7 cells
calmodulin,binding of calmodulin to empty nanodisc,"[2]; empty nanodisc 0-100 μM, 1 mM calcium chloride, 1 μM IGFBP3",No specific binding was detected; also recorded: No specific binding was observed
"CCN(CC)CCCC(C)Nc1ccnc2cc(Cl)ccc12 (centres unmarked) [chloroquine, reference compound]",LC3-II punctate accumulation with chloroquine,[7]; 200 μM chloroquine plus 1 μM IGFBP3,this punctate stain was accumulated in the cytoplasm
same,LC3-II punctate accumulation with chloroquine,"[7]; 200 μM chloroquine plus 1 μM IGFBP3, listed as CQ",accumulates LCII positive vesicles in the cytoplasm of Vero cells
